Test results from publication PMC2845980 (Bioorganic & medicinal chemistry, 2010).
Read-outs that look alike come from different tables or passages of the source.

How the values were obtained:
tgDHFR = tgDHFR (Toxoplasma gondii, UniProt Q07422); assay: Spectrophotometric DHFR inhibition assay, T. gondii enzyme; format: biochemical; conditions: IC50 rlDHFR / IC50 tgDHFR
Solubility = format: physicochemical; conditions: qualitative statement
[1] = first study, i.p. 50 mg/kg/day, mouse
[2] = second study, i.p. 50 mg/kg/day, mouse

tgDHFR, sequence (Q07422 whole entry): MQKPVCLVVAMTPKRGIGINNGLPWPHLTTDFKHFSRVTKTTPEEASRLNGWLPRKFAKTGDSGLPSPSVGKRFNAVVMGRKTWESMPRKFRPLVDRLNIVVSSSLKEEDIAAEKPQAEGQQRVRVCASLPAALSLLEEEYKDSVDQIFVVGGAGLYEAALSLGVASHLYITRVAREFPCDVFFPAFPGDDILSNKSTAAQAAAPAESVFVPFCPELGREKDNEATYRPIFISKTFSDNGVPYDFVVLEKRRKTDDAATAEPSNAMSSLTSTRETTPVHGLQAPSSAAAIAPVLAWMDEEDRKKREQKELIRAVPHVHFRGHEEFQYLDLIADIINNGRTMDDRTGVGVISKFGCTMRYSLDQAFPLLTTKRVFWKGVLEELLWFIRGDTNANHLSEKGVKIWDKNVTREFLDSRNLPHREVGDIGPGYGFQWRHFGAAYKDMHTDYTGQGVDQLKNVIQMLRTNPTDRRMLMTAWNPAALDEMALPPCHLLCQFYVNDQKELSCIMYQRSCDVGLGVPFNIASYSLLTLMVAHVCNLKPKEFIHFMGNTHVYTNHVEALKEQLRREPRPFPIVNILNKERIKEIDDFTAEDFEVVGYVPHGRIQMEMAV

solubility properties (Solubility)	SMILES	selectivity ratio rl/tg (tgDHFR)	Mean counts of T. gondii per 1000x field in peritoneal harvest (T. gondii; [1])	Median counts of T. gondii per 1000x field in peritoneal harvest (T. gondii; [1])	gross toxicity in treated mice (T. gondii; mouse, in vivo, ip, 50 mg/kg/day)	reduction of the median counts per 1000x field versus control (T. gondii; second study, i.p. 50 mg/kg/day)	Mean counts of T. gondii per 1000x field in peritoneal harvest (T. gondii; [2])	Median counts of T. gondii per 1000x field in peritoneal harvest (T. gondii; [2])
	Cc1c(Sc2ccc3ccccc3c2)[nH]c2nc(N)nc(N)c12 [Compound 90, 2,4-Diamino-5-methyl-6-(2-naphthylthio)pyrrolo[2,3-d]pyrimidine]	5						
poor solubility properties	Cc1cccc(C)c1Sc1[nH]c2nc(N)nc(N)c2c1C [Compound 91, 2,4-Diamino-5-methyl-6-(2′,6′-dimethylphenylthio)pyrrolo[2,3-d]pyrimidine]		12.5 counts per 1000x field	7.0 counts per 1000x field	no gross evidence of toxicity	more than two-fold	8.9 counts per 1000x field	5.0 counts per 1000x field
more soluble	Cc1cccc(C)c1Sc1[nH]c2nc(N)nc(N)c2c1C.Cl [Compound 95, 2,4-Diamino-5-methyl-6-(2′,6′-dimethylphenylthio)pyrrolo[2,3-d]pyrimidine hydrochloride salt]						2.4 counts per 1000x field	1.0 counts per 1000x field
